Results reported in patent US11999806B2, “Broad-spectrum polypeptide against enterovirus and application thereof” (WUHAN INSTITUTE OF VIROLOGY, CHINESE ACADEMY OF SCIENCES, priority 2018, dated 2024).
Where “and” joins values, the source holds several entries; their conditions need not be identical. Equal values may be shown once. Read-outs that look alike come from different tables or passages of the source. No end group written: not given here.

Assays:
RD cells = test: Cytotoxicity by CCK-8 in RD cells; type: cell-based; details: RD cells; for cytotoxicity, result in words: CCK-8, 24 h; for Cell viability (%): 24 h
Method: (§1) The experiment was performed as follows. • (1) RD cells were plated in a 96-well plate at 100 μl per well. • (2) After the cells reached 70%-80% confluence, the MEM medium containing 10% serum was replaced with a MEM medium containing 2% serum. Then, polypeptide P2 was added to generate gradient concentrations of 0.01 μM, 0.1 μM, 1 μM, 10 μM, and 100 μM (final concentration), respectively. • (3) The test was performed 24 hours after the addition of the polypeptide, and 10 μl of viable cell detection reagent CCK-8 was added to each well and mixed well. • (4) The plate was incubated at 37° C. for 2 h. • (5) The absorbance value at OD450 was measured with a microplate reader.
as §1, with “P1” for “P2”, “concentrations),” for “concentration),”
(§2) RD cells were used to test the antiviral effect of polypeptide P1. When RD cells reached 80% confluence, polypeptide P1 was added at concentrations of 0 μM (control group), 0.01 μM, 0.1 μM, 1 μM, 10 μM, and 100 μM, respectively. Three parallel wells were used for each concentration. The test was carried out 24 hours later, and the cell viability was detected using the CCK-8 kit.
as §1, with “3A-TAT-EP” for “P2”, “concentrations),” for “concentration),”
as §2, with “3A-TAT-EP.” for “P1.”, “3A-TAT-EP” for “P1”
as §1, with “Then, 3A-EP-DRI or 3A-EP-PEG4-PA” for “Then, polypeptide P2”, “and 50” for “and 100”, “(final concentrations),” for “(final concentration),”
as §2, with “polypeptides 3A-EP-DRI and 3A-EP-PEG4-PA.” for “polypeptide P1.”, “3A-EP-DRI or 3A-EP-PEG4-PA” for “P1”, “50” for “100”, “kit. […]” for “kit.”

[1] = Cytotoxicity by CCK-8 in RD cells; type: cell-based; details: human; for viability at 24 h, 0.01 µM: 0.01 μM polypeptide; for viability at 24 h, 0.1 µM: 0.1 μM polypeptide; for viability at 24 h, 1 µM: 1 μM polypeptide; for viability at 24 h, 10 µM: 10 μM polypeptide; for viability at 24 h, 20 µM: 20 μM polypeptide; for viability at 24 h, 30 µM: 30 μM polypeptide; for viability at 24 h, 40 µM: 40 μM polypeptide; for CC50 at 24 h: Table 1 summary, cell line not given, read-out: CC50
Method: as §1
as §1, with “P1” for “P2”, “concentrations),” for “concentration),”
as §2
as §1, with “3A-TAT-EP” for “P2”, “concentrations),” for “concentration),”
as §2, with “3A-TAT-EP.” for “P1.”, “3A-TAT-EP” for “P1”
as §1, with “Then, 3A-EP-DRI or 3A-EP-PEG4-PA” for “Then, polypeptide P2”, “and 50” for “and 100”, “(final concentrations),” for “(final concentration),”
as §2, with “polypeptides 3A-EP-DRI and 3A-EP-PEG4-PA.” for “polypeptide P1.”, “3A-EP-DRI or 3A-EP-PEG4-PA” for “P1”, “50” for “100”, “kit. […]” for “kit.”

[2] = RD cells, 24 h, untreated = 100%, read-out: Cell viability (%)
[3] = RD cells, 24 h (Table 6), read-out: Cell viability (%)
[4] = RD cells, 50 μM polypeptide, 24 h (Table 6), read-out: Cell viability (%)

Compound: CCCCCCCCCCCCCCCC(=O)NCCCC[C@H](NC(=O)CCOCCOCCOCCOCCNC(=O)[C@H](CCCCN)NC(=O)[C@H](C)NC(=O)[C@@H]1CCCN1C(=O)[C@@H](NC(=O)[C@@H](NC(=O)[C@H](Cc1c[nH]c2ccccc12)NC(=O)CNC(=O)[C@H](CCC(N)=O)NC(=O)[C@H](CCC(=O)O)NC(=O)[C@H](CCCNC(=N)N)NC(=O)[C@H](CS)NC(=O)[C@H](Cc1ccc(O)cc1)NC(=O)[C@H](CCC(N)=O)NC(=O)[C@H](CCCNC(=N)N)NC(=O)[C@@H](NC(=O)[C@H](CCC(=O)O)NC(=O)[C@@H](N)CCC(=O)O)C(C)C)[C@@H](C)CC)[C@@H](C)CC)C(=O)O [3A-EP-PEG4-PA]
- cytotoxicity, result in words (RD cells): not toxic to cells within 50 μM
- viability at 24 h, 0.01 µM [1, 2]: 107%
- viability at 24 h, 0.1 µM [1, 2]: 94.9%
- viability at 24 h, 1 µM [1, 2]: 89.9%
- viability at 24 h, 10 µM [1, 2]: 95.3%
- viability at 24 h, 20 µM [1, 3]: 98.4%
- viability at 24 h, 30 µM [1, 3]: 99.5%
- viability at 24 h, 40 µM [1, 3]: 99.3%
- viability at 24 h, 50 µM [1, 4]: 94.8%
- CC50 at 24 h [1]: > 100 µM

Compound: CC[C@@H](C)[C@@H](NC(=O)[C@H]1CCCN1C(C)=O)C(=O)N[C@@H](C(=O)N[C@H](Cc1c[nH]c2ccccc12)C(=O)NCC(=O)N[C@H](CCC(N)=O)C(=O)N[C@H](CCC(=O)O)C(=O)N[C@H](CCCNC(=N)N)C(=O)N[C@H](CS)C(=O)N[C@H](Cc1ccc(O)cc1)C(=O)N[C@H](CCC(N)=O)C(=O)N[C@H](CCCNC(=N)N)C(=O)N[C@@H](C(=O)N[C@H](CCC(=O)O)C(=O)N[C@H](CCC(=O)O)C(=O)N1CCC[C@@H]1C(=O)N1CCC[C@@H]1C(=O)N[C@H](CCCNC(=N)N)C(=O)N[C@H](CCCNC(=N)N)C(=O)N[C@H](CCCNC(=N)N)C(=O)N[C@H](CCC(N)=O)C(=O)N[C@H](CCCNC(=N)N)C(=O)N[C@H](CCCNC(=N)N)C(=O)N[C@H](CCCCN)C(=O)N[C@H](CCCCN)C(=O)N[C@H](CCCNC(=N)N)C(=O)NCC(=O)N[C@H](Cc1ccc(O)cc1)C(N)=O)C(C)C)[C@H](C)CC [3A-EP-DRI]
- cytotoxicity, result in words (RD cells): not toxic to cells within 50 μM
- viability at 24 h, 0.01 µM [1, 2]: 106%
- viability at 24 h, 0.1 µM [1, 2]: 95.9%
- viability at 24 h, 1 µM [1, 2]: 91.3%
- viability at 24 h, 10 µM [1, 2]: 95.7%
- viability at 24 h, 20 µM [1, 3]: 101%
- viability at 24 h, 30 µM [1, 3]: 99%
- viability at 24 h, 40 µM [1, 3]: 89%
- viability at 24 h, 50 µM [1, 4]: 78.5%
- CC50 at 24 h [1]: > 100 µM

Compound: YGRKKRRQRRRGSGEAVREYCK [BP8]
- Cell viability (%) (RD cells; 3.0625 μM, CCK-8 4 h (Example 18)): 103.1369% and 104.4%
- Cell viability (%) (RD cells; 6.125 μM, CCK-8 4 h (Example 18)): 103.5158%
- Cell viability (%) (RD cells; 12.5 μM, CCK-8 4 h (Example 18)): 99.35% and 104.8421%
- Cell viability (%) (RD cells; 25 μM, CCK-8 4 h (Example 18)): 97.26% and 99.85%
- Cell viability (%) (RD cells; 50 μM, CCK-8 4 h (Example 18)): 94.17% and 97.64%
- Cell viability (%) (RD cells; 100 μM, CCK-8 4 h (Example 18)): 93.6% and 96.25%
- Cell viability (%) (RD cells; 200 μM, CCK-8 4 h (Example 18)): 92.08%
- cytotoxicity, result in words (RD cells): not toxic to cells within 200 μM
- viability at 24 h, 3.0625 µM ([1]; RD cells, 3.0625 μM, 24 h, CCK-8 4 h (Example 18), read-out: Cell viability (%)): 102%
- viability at 24 h, 6.125 µM ([1]; RD cells, 6.125 μM, 24 h, CCK-8 4 h (Example 18), read-out: Cell viability (%)): 101%
- viability at 24 h, 12.5 µM ([1]; RD cells, 12.5 μM, 24 h, CCK-8 4 h (Example 18), read-out: Cell viability (%)): 94.9%
- viability at 24 h, 25 µM ([1]; RD cells, 25 μM, 24 h, CCK-8 4 h (Example 18), read-out: Cell viability (%)): 93.4%
- viability at 24 h, 50 µM ([1]; RD cells, 50 μM, 24 h, CCK-8 4 h (Example 18), read-out: Cell viability (%)): 95.2%
- viability at 24 h, 100 µM ([1]; RD cells, 100 μM, 24 h, CCK-8 4 h (Example 18), read-out: Cell viability (%)): 93.1%
- viability at 24 h, 200 µM ([1]; RD cells, 200 μM, 24 h, CCK-8 4 h (Example 18), read-out: Cell viability (%)): 88.9%
- CC50 at 24 h [1]: > 200 µM

Compound: RRRRRRRREEVRQYCRDQ [P2]
- Cell viability (%) (RD cells; 0.01 μM polypeptide, untreated = 100%): 104.6% and 102.7%
- Cell viability (%) (RD cells; 0.1 μM polypeptide, untreated = 100%): 104% and 100.6%
- Cell viability (%) (RD cells; 1 μM polypeptide, untreated = 100%): 105.4% and 98.81%
- Cell viability (%) (RD cells; 10 μM polypeptide, untreated = 100%): 101.1% and 99.03%
- Cell viability (%) (RD cells; 100 μM polypeptide, untreated = 100%): 106.8% and 94.07%
- cytotoxicity, result in words (RD cells): not toxic to cells within 100 μM
- viability at 24 h, 0.01 µM [1, 2]: 98%
- viability at 24 h, 0.1 µM [1, 2]: 94.4%
- viability at 24 h, 1 µM [1, 2]: 105%
- viability at 24 h, 10 µM [1, 2]: 96.6%
- viability at 24 h, 100 µM ([1]; RD cells, 100 μM polypeptide, 24 h, untreated = 100%, read-out: Cell viability (%)): 90.1%
- CC50 at 24 h [1]: > 100 µM
